# Experimental data reported in patent publication EP0106988A1, “Pharmacologically active lactam derivatives” (THE WELLCOME FOUNDATION LIMITED, priority 1982, dated 1984).
# Key:
# Assay type in all cases: in vivo
# [1] = test system: rat; test: Carrageenin pleurisy assay (CPA), acute anti-inflammatory activity; details: dose required to reduce the 3 hour exudate volume by 50%
# Description: Following the procedure described by Vinegar et al. in Proc.Soc.Exp.Biol.Med. 151, 556, (1976), the actue anti-inflammatory activityof compounds of formula (I) was compared with that of known anti-inflammatory drugs in the rat. The average 3 hour exudate volume for each drug treated group was determined and the % inhibition relative to solvent-fed control animals calculated, the ED50 being the dose required to reduce the 3 hour exudate volume by 50%.
# [2] = Modified trypsin hyperalgesic assay (THA); details: 1 h; analgesia; pain scores determined 60 minutes after trypsin injection
# Description: The procedure described by Vinegar et al. in Eur. J] […] The analgesic agents were administered 30 minutes after the administration of trypsin. In addition, a modification of Vinegar's published assay was carried out, comprising the administration of analgesic agent preceding subplantar injectin of trypsin (0.10 ml) of 10% solution of trypsin in pyrogen-free water by 15 minutes. In both THA's, pain scores were determined 60 minutes after trypsin injection. The results of the modification was to increase the sensitivity of the THA to the mild analgesic action of the agents.
# [3] = test system: rat; test: Rat hot plate assay; details: po, 1 h, administered orally by gavage 60 min prior to testing, protected = no response within 18.3 seconds
# Excerpt: The rat hot plate assay incorporated 2 modifications of the mouse hot plate assay originally described by Eddy et al, J. Pharmacol. Exp. Ther. 98, 121-137 (1950). The first modification was enlargement of the diameter of the cylindrical (water filled) copper plate to 25.0 cm to accommodate rats instead of mice.
# The second modification was the use of a temperature controller to regulate a 250 watt infrared heat lamp which was activated via a thermistor probe attached to the undersurface of the top of the copper plate. The surface temperature was thus maintained at 45 + 1.0°C (N=28 measurements of the hot plate temperature under experimental conditions). The time in which a rat placed on the hotplate responded by lifting, shaking or licking either or its hind or forelimbs was recorded in tenths of a second.
# Only animals responding in pretest within 6-13 seconds were used in the studies. Drugs were suspended in 0.5% sodium carboxymethylcellulose and administered orally, by gavage, in a volume of 1.00 ml/100 g.b wt. 60 min prior to testing. […] The reaction time of 18.3 seconds represented the sum of the mean protest times of 40 untreated rats plus the time of 3 standard deviations of the mean.ED50's and their standard errors were estimated from a graph of the dose-response curves using the method of Miller and Tainter (Proc.Soc.Exp.Biol.Med. 57, 261-262 (1944). Following this procedure the analgesic activity of the compounds of formula (I) was compared to that of standard analgesic drugs.
Compound,ED50 [1] [mg/kg],ED50 [2] [mg/kg],ED50 [3] [mg/kg]
"C=CCOc1ccc(N2CCCC2=O)cc1 [Example 2, 1-(4-allyloxyphenyl)-pyrrolidin-2-one]",57,,
"COc1ccc(OC)c(N2CCCC2=O)c1 [Example 6, 1-(2,5-dimethoxyphenyl)-pyrrolidin-2-one]",80,,
"CC1CC(=O)N(c2ccc3c(c2)OCO3)C1 (stereo not shown) [Example 1, 1-(1,3-benzodioxol-5-yl)-4-melhyl-pyrrolidin-2-one]",96,80,120
"O=C1CCCN1c1ccc2[nH]ncc2c1 [Example 7, 1-(1H-indazol-5-yl)-pyrrolidin-2-one]",34,45,30
"O=C(O)CCCNc1ccc2c(c1)OCO2 [Example 5, 4-(1,3-benzodioxol-5-yl)amino butyric acid]",42,60,120
"CCOc1ccc(N2CCCC2=O)cc1OCC [Example 18, 1-(3,4-diethoxyphenyl)-pyrrolidin-2-one]",19,,
"COc1cc(OC)cc(N2CCCC2=O)c1 [Example 10, 1-(3,5-dimethoxyphenyl)-pyrrolidin-2-one]",95,,
"CCc1cccc(N2CCCC2=O)c1 [Example 20, 1-(3-ethylphenyl)-pyrrolidin-2-one]",78,,
"C[C@@H]1CN(c2ccc3c(c2)OCO3)C(=O)[C@H]1C (relative stereo) [Example 4, trans-1-(1,3-benzodioxol-5-yl)-3,4-dimethyl-pyrrolidin-2-one]",75,46,
"O=C1CCCN1c1ccccn1 [Example 21, 1-(2-pyridyl)-pyrrolidin-2-one]",41,,
"CC1CCN(c2ccc3c(c2)OCO3)C1=O (stereo not shown) [Example 26, 1-(1,3-benzodioxol-5-yl)-3-methyl-pyrrolidin-2-one]",39,,
"O=C(O)COc1ccccc1N1CCCC1=O [Example 37, 2-(2-oxy-1-pyrrolidinyl)phenoxyacetic acid]",50,,
"C#CCOc1ccccc1N1CCCC1=O [Example 27, 1-(2-(propyl-yn-yloxy)phenyl)-pyrrolidin-2-one]",35,40,
"Cc1cccnc1N1CCCC1=O [Example 24, 1-(3-methyl-2-pyridyl)-pyrrolidin-2-one]",29,,
"C=CCOc1ccccc1N1CCCC1=O [Example 28, 1-(2-allyloxyphenyl)-pyrrolidin-2-one]",62,,120
"C#CC(C)Oc1ccccc1N1CCCC1=O (stereo not shown) [Example 31, 1-(2-(1-methyl-prop-2-yn-yl)oxyphenyl)-pyrrolidin-2-one]",39,,
